Calls of active or inactive are those of the source.
Legend:
[1] = target: Latent membrane protein 1 (Human herpesvirus 4 (strain B95-8), UniProt P03230); test: TES1-eGFP NF-kB reporter inhibition versus Tet-On dsRED, dose response, selectivity assay for LMP1 NF-kB inhibitor project, imaging, HEK293T, dual-color eGFP/dsRED, cherry-picks (AID 588398); type: functional, cell-based
[2] = target: Botulinum neurotoxin type F (Clostridium botulinum, UniProt P30996); test: High-throughput multiplex microsphere dose response for inhibitors of toxin protease, specifically Botulinum neurotoxin light chain F protease, compounds from Cherry Pick 02.; type: functional; conditions: read-out: EC50_MICROM
[3] = target: T1, Sentrin-specific protease 1 (Homo sapiens, UniProt Q9P0U3); test: potency of human SENP1 inhibitors, dose response, biochemical, kinetic FRET (AID 651697); type: functional; conditions: read-out: IC50_Mean
[4] = target: T2, Endoribonuclease toxin MazF (Escherichia coli K-12, UniProt P0AE70); test: fluorescent RNA oligo signal without MazF, dose response, counter-screen for MazEF activator project, biochemical, fluorescence, single-stranded RNase substrate (AID 588502); type: functional
T2 sequence (P0AE70 whole entry): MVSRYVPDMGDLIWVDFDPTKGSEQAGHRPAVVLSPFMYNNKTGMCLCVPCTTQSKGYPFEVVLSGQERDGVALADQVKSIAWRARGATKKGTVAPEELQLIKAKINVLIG

[5] = target: T2, Endoribonuclease toxin MazF; test: MazF toxin RNase activators, dose response, biochemical, fluorescence, single-stranded RNA substrate, uHTS hits (AID 588481); type: functional
[6] = target: T1, Sentrin-specific protease 1; test: Dose response confirmation of small molecule inhibitors of the catalytic domain of the SUMO protease, SENP1 in a FRET assay.; type: functional; conditions: read-out: IC50_Mean
[7] = Counterscreen for activators of the function of SWI/SNF related, matrix associated, actin dependent regulator of chromatin, subfamily a, member 2 (SMARCA2, BRM): Luminescence-based cell-based high throughput dose response assay to identify non-selective compounds using the VP16 reporter assay.; type: functional
[8] = target: Tyrosine-protein phosphatase non-receptor type 22 (Homo sapiens, UniProt Q9Y2R2); test: LYP phosphatase inhibition for selectivity, dose response, selectivity assay for LMPTP inhibitor project, biochemical, fluorescence, LYP catalytic domain (AID 652006); type: functional; conditions: read-out: IC50_Mean
[9] = target: T3, Low molecular weight phosphotyrosine protein phosphatase (Homo sapiens, UniProt P24666); type: functional; conditions: read-out: IC50_Mean
[10] = target: T3, Low molecular weight phosphotyrosine protein phosphatase; type: functional; conditions: read-out: IC50_Mean; remark: listed apart in the source
[11] = target: T4, DNA repair protein RAD52 homolog (Homo sapiens, UniProt P43351); type: functional, biochemical
T4 sequence (P43351 whole entry): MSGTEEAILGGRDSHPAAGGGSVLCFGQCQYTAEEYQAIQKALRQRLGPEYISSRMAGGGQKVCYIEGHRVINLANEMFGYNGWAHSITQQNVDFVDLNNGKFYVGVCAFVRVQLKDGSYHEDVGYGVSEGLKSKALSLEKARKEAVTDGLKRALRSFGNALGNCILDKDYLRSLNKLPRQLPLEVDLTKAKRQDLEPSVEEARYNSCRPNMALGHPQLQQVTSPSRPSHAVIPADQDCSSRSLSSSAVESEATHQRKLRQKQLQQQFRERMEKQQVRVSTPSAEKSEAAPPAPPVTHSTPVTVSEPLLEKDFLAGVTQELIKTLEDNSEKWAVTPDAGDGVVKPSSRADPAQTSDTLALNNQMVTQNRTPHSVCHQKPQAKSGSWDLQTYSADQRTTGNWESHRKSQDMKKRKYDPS

[12] = target: T5, DNA repair and recombination protein RAD54-like (Homo sapiens, UniProt Q92698); test: inhibitors of human RAD54 branch migration, confirmation, biochemical, fluorescence, cherry-picked samples, dose series (AID 651657); type: functional
T5 sequence (Q92698 whole entry): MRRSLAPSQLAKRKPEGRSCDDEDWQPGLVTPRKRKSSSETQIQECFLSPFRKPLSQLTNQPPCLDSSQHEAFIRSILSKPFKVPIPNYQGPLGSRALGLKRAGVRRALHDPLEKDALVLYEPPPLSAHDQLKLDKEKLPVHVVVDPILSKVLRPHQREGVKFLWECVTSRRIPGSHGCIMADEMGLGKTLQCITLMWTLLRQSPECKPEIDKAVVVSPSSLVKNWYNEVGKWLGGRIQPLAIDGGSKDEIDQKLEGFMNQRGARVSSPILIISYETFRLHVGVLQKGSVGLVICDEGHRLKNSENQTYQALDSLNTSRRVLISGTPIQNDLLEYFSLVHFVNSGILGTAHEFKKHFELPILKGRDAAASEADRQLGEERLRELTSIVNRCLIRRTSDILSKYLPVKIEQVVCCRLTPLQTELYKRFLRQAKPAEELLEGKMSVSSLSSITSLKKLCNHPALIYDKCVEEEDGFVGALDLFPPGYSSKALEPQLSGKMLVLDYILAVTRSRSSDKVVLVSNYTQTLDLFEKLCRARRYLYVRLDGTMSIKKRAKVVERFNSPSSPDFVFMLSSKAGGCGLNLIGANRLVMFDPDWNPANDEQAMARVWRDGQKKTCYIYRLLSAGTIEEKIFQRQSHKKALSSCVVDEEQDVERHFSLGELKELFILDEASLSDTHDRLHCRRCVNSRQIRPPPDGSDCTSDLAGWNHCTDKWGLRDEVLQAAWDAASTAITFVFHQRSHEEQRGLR

[13] = target: SWI/SNF-related matrix-associated actin-dependent regulator of chromatin subfamily A member 2 (Homo sapiens, UniProt P51531); test: Luminescence-based cell-based high throughput dose response assay to identify activators of the function of SWI/SNF related, matrix associated, actin dependent regulator of chromatin, subfamily a, member 2 (SMARCA2, BRM).; type: functional
[14] = target: T6, Diacylglycerol lipase-beta (Mus musculus, UniProt Q91WC9); test: Late stage assay provider results from the probe development effort to identify inhibitors of diacylglycerol lipase, beta (DAGLb): fluorescence-based dose-response biochemical gel-based competitive Activity-Based Protein Profiling (ABPP) inhibition of DAGLb in vitro.; type: functional
[15] = target: T6, Diacylglycerol lipase-beta; test: Late stage assay provider results from the probe development effort to identify inhibitors of diacylglycerol lipase, beta (DAGLb): LCMS-based biochemical dose response assay.; type: functional
[16] = target: Monoacylglycerol lipase ABHD6 (Mus musculus, UniProt Q8R2Y0); test: Late stage assay provider results from the probe development effort to identify inhibitors of diacylglycerol lipase, beta (DAGLb): fluorescence-based dose-response biochemical gel-based competitive Activity-Based Protein Profiling (ABPP) inhibition of antitarget ABHD6 in vitro, set 2.; type: functional
Chain of Monoacylglycerol lipase ABHD6 (Q8R2Y0 whole entry): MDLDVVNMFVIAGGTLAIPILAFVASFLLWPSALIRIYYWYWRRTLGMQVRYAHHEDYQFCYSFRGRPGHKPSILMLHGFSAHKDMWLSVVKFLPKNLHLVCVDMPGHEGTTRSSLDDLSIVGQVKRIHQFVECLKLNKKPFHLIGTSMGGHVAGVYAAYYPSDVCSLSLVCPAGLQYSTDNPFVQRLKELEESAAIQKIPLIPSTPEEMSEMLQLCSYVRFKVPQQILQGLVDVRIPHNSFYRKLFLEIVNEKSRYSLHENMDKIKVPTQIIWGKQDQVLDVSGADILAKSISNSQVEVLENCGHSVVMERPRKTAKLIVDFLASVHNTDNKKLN

T6 sequence (Q91WC9 whole entry): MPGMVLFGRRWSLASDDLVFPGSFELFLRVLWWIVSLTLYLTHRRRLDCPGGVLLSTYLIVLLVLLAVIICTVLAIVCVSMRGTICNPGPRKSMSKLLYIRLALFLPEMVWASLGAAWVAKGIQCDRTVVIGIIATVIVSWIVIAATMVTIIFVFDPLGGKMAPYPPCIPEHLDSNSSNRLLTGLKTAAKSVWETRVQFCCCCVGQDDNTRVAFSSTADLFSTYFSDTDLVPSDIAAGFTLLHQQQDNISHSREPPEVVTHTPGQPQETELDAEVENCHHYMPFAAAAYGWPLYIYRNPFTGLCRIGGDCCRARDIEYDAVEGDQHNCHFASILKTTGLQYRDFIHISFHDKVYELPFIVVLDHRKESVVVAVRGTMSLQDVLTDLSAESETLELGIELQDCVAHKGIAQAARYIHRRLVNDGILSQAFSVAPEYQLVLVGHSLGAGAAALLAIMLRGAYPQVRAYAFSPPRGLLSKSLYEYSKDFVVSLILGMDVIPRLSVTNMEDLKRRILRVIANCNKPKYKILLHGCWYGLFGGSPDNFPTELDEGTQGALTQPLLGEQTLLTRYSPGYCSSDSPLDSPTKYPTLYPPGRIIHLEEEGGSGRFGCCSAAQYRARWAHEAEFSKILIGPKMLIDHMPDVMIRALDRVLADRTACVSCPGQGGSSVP
T1 sequence (Q9P0U3 whole entry): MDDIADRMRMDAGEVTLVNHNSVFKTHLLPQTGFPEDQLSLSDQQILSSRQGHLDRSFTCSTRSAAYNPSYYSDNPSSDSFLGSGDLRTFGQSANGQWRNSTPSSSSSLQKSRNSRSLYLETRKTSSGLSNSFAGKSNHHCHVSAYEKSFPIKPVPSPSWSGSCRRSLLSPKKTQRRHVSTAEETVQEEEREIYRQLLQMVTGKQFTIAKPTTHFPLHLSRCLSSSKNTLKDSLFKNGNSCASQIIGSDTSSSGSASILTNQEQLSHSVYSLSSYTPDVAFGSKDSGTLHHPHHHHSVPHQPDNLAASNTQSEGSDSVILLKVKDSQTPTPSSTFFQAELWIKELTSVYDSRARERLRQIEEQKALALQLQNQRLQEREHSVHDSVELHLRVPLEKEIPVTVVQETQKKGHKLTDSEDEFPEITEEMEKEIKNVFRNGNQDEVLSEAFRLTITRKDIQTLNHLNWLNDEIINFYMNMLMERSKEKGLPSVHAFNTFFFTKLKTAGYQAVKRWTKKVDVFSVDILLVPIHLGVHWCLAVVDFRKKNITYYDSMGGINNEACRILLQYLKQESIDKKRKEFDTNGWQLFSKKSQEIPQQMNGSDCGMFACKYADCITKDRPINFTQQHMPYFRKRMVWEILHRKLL
T3 sequence (P24666 whole entry): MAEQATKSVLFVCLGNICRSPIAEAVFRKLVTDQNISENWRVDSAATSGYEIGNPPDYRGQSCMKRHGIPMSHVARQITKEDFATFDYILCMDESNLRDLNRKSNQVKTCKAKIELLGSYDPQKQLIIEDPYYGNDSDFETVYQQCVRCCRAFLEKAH
Chain of Latent membrane protein 1 (P03230 whole entry): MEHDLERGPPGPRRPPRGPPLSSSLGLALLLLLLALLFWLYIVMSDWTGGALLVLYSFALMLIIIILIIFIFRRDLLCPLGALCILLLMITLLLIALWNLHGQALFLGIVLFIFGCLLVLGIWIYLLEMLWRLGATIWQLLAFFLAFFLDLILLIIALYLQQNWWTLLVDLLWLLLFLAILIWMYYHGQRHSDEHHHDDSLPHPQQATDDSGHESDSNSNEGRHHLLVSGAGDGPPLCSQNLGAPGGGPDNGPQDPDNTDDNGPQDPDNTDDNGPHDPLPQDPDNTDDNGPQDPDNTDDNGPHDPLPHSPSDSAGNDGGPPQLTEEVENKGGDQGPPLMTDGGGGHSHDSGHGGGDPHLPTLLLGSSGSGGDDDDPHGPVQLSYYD
Chain of Tyrosine-protein phosphatase non-receptor type 22 (Q9Y2R2 whole entry, the tested form may be a part): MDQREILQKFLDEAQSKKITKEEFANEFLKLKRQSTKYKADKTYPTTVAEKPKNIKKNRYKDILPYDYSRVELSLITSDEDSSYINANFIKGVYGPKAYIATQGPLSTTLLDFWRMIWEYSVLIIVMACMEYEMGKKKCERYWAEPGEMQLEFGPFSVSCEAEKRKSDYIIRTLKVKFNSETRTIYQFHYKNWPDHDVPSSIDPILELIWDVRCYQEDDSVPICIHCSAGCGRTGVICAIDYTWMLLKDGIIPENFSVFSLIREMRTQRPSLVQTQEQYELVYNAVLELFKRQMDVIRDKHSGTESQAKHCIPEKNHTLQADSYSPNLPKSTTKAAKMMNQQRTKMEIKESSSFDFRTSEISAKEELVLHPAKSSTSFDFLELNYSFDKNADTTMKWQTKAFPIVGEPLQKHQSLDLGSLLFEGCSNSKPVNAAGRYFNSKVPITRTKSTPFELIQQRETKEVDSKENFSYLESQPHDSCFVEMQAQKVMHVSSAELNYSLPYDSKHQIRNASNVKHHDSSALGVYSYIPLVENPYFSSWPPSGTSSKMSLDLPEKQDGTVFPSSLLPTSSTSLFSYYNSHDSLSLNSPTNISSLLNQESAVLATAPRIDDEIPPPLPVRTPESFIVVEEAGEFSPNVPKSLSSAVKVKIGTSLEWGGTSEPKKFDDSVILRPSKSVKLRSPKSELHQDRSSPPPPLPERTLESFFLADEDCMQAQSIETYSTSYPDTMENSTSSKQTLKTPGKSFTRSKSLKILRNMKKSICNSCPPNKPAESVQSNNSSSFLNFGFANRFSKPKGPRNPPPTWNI
Chain of SWI/SNF-related matrix-associated actin-dependent regulator of chromatin subfamily A member 2 (P51531 whole entry): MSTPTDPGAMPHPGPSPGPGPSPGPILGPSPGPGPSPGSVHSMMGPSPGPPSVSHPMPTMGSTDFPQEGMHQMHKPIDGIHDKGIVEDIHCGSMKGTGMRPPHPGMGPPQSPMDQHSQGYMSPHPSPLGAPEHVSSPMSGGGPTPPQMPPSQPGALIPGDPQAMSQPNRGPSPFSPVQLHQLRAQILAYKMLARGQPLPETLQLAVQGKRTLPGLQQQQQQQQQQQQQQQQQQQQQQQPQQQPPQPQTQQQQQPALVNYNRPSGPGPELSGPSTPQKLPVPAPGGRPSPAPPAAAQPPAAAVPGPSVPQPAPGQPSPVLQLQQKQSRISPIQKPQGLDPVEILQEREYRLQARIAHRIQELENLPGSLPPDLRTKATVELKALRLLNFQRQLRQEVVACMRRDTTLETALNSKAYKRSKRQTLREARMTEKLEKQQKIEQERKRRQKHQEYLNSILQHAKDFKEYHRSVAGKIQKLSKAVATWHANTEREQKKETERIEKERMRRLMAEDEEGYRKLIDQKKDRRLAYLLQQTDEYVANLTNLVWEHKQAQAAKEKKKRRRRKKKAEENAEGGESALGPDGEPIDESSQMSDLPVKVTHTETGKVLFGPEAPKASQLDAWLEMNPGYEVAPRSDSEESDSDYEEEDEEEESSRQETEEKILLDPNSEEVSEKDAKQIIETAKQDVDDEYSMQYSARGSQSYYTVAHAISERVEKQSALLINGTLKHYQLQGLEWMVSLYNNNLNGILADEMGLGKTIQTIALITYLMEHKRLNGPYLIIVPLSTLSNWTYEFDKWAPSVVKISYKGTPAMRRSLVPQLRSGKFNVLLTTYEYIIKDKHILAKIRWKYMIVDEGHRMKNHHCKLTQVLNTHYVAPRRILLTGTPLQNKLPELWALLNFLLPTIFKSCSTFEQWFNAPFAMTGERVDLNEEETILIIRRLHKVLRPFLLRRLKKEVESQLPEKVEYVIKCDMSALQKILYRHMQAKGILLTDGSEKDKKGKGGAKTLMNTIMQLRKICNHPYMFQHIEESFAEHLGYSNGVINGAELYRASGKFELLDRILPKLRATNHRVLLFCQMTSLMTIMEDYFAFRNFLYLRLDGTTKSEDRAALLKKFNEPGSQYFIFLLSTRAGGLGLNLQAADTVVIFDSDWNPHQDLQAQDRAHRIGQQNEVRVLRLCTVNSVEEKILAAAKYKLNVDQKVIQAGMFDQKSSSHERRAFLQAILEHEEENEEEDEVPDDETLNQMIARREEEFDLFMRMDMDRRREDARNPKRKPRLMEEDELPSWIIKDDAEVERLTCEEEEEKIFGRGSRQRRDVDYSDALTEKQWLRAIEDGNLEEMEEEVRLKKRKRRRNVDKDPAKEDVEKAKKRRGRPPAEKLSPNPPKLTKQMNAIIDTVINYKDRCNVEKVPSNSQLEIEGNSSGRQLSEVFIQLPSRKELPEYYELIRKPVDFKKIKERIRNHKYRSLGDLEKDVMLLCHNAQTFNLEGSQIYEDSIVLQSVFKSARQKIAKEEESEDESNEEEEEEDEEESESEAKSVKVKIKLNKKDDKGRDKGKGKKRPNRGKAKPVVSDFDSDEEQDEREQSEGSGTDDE
Chain of Botulinum neurotoxin type F (P30996 1-436 limits assumed): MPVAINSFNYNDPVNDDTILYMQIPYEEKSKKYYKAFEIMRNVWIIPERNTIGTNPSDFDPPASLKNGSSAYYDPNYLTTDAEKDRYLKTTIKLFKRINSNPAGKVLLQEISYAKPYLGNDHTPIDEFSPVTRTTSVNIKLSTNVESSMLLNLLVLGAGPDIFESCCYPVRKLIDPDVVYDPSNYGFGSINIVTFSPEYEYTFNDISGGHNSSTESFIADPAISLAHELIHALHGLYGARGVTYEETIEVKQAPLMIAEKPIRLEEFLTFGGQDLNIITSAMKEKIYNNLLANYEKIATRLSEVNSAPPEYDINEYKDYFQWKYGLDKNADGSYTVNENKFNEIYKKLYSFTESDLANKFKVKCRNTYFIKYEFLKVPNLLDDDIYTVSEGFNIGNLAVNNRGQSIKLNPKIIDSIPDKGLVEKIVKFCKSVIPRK

## COc1ccc(C(=O)OCC(=O)c2c[nH]c3ccccc23)cc1OC
[1]
  AC50: 164 µM (active)
[2]
  EC50: > 20 µM (inactive)

## CN(N=Cc1cccc2cccnc12)c1ccc([N+](=O)[O-])cc1[N+](=O)[O-]
[3]
  IC50: 8.19 µM (active)
[4]
  EC50: 3.55 µM (active)
[5]
  EC50: > 99 µM (inactive)
[6]
  IC50: 4.08 µM (active)

## Cc1nccc2cc3[nH]c4ccccc4c3cc12
[7]
  EC50: > 91.2 µM (inactive)
[8]
  IC50: 52.5 µM (inactive)
[9]
  IC50: 2.59 µM (active)
[10]
  IC50: 3.18 µM (active)
[11]
  AC50: 1.96 µM (active)
[12]
  AC50: 2.49 µM (active)
[13]
  EC50: 5.87 µM (active)

## COc1ccccc1-c1ccc(-c2cn(C(=O)N3CCCCC3Cc3ccccc3)nn2)cc1 (stereo unspecified)
[14]
  IC50: 0.056 µM (active)
[15]
  IC50: 0.1 µM (active)
[16]
  IC50: 0.001 µM (active)

Source: ChEMBL document CHEMBL1201862, “PubChem BioAssay data set” (2004)
